According to ChEMBL document CHEMBL1955809, “Discovery of GS-9256: a novel phosphinic acid derived inhibitor of the hepatitis C virus NS3/4A protease with potent clinical activity” (Bioorg Med Chem Lett, 2012):
Calls of active or inactive are those of the source. The rule behind the calls is not given here.

How the values were obtained:
[1] = Permeability from basolateral to apical side in human Caco2 cells; format: ADME, cell-based; conditions: Caco-2, read-out: permeability
[2] = tested on: Hepatitis C virus; assay: Antiviral activity against HCV genotype 1b infected in human Huh cells expressing luc gene by replicon assay; format: functional, organism-based, Hepacivirus hominis
[3] = Permeability from apical to basolateral side in human Caco2 cells; format: ADME, cell-based; conditions: Caco-2, read-out: permeability
[4] = tested on: Hepatitis C virus; assay: Inhibition of HCV1b NS3/4A protease; parameters: species or system Hepatitis C virus subtype 1b; conditions: for IC50: Hepatitis C virus
[5] = Oral bioavailability in dog at 4 mg/kg; format: ADME, organism-based, Canis lupus familiaris; conditions: in vivo
[6] = Clearance in dog; format: ADME, organism-based, Canis lupus familiaris; conditions: in vivo
[7] = Drug excretion in iv dosed bile-cannulated rat bile assessed as parent compound level after 4 hrs; format: ADME, organism-based; conditions: read-out: Ae
[8] = Selectivity ratio of IC50 for porcine pancreatic elastase to IC50 for HCV1b NS3/4A protease
[9] = Inhibition of CYP450; format: ADME
[10] = Selectivity ratio of IC50 human protease 3 to IC50 for HCV 1b NS3/4A protease
[11] = molecular target: Voltage-gated inwardly rectifying potassium channel KCNH2 (Homo sapiens, UniProt Q12809); assay: Inhibition of human ERG up to 25 uM
Chain of Voltage-gated inwardly rectifying potassium channel KCNH2 (Q12809 whole entry): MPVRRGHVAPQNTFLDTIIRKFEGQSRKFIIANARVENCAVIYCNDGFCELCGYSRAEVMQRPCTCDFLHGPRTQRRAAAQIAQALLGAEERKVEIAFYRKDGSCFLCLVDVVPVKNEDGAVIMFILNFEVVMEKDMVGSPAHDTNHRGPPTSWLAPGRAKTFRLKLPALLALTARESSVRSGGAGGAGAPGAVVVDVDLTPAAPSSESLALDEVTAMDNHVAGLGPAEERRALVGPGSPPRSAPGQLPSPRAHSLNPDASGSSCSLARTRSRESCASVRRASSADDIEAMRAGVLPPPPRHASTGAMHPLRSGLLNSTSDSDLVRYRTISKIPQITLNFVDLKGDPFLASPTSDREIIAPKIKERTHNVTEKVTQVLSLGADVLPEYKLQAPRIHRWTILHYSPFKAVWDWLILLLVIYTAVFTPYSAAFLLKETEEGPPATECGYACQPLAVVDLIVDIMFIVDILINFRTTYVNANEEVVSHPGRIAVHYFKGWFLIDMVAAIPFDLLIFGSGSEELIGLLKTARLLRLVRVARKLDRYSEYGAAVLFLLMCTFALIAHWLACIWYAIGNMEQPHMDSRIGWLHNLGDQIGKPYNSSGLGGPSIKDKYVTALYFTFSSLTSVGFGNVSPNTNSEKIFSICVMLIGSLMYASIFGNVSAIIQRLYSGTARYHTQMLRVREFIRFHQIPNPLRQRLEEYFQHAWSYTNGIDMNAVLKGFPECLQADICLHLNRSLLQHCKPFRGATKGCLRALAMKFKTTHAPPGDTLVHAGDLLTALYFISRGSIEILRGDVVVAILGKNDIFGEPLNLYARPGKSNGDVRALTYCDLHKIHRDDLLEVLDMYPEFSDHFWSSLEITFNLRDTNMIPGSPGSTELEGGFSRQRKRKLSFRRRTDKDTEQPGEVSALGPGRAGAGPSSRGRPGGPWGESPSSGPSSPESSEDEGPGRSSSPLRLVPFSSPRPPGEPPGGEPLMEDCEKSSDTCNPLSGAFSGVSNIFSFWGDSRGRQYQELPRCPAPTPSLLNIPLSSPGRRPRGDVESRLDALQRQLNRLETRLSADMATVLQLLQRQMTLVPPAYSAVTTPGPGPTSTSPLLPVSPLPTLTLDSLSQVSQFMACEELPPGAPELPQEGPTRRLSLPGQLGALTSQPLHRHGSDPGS

[12] = tested on: Hepatitis C virus; assay: Antiviral activity against HCV genotype 1 infected in human at 150 mg, po; format: functional, Hepacivirus hominis
[13] = molecular target: T1, Solute carrier family 22 member 6 (Homo sapiens, UniProt Q4U2R8); assay: Activity at OAT1
T1 sequence (Q4U2R8 whole entry): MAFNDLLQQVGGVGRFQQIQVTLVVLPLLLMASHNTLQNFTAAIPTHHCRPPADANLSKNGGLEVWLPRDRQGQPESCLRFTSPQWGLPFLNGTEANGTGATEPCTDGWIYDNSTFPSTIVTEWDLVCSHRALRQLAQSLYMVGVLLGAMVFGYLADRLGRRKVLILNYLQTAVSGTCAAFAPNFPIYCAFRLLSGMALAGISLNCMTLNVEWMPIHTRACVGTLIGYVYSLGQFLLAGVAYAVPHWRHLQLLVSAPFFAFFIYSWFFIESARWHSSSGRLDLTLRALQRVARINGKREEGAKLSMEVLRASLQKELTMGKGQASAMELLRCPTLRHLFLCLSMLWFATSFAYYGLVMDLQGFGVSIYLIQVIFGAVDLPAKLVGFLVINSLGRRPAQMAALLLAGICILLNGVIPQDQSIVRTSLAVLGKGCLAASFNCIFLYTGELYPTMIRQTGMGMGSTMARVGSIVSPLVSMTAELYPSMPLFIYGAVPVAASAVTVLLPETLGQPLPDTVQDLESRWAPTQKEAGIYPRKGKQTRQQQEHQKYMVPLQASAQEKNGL

[14] = Selectivity ratio of IC50 for human leukocyte protease to IC50 for HCV1b NS3/4A protease
[15] = Half life in human; format: ADME, organism-based; conditions: in vivo
[16] = tested on: Hepatitis C virus; assay: Antiviral activity against HCV genotype 1 infected in human at 450 mg, po; format: functional, Hepacivirus hominis
[17] = molecular target: T2, Solute carrier family 22 member 7 (Homo sapiens, UniProt Q9Y694); assay: Activity at OAT2
T2 sequence (Q9Y694 whole entry): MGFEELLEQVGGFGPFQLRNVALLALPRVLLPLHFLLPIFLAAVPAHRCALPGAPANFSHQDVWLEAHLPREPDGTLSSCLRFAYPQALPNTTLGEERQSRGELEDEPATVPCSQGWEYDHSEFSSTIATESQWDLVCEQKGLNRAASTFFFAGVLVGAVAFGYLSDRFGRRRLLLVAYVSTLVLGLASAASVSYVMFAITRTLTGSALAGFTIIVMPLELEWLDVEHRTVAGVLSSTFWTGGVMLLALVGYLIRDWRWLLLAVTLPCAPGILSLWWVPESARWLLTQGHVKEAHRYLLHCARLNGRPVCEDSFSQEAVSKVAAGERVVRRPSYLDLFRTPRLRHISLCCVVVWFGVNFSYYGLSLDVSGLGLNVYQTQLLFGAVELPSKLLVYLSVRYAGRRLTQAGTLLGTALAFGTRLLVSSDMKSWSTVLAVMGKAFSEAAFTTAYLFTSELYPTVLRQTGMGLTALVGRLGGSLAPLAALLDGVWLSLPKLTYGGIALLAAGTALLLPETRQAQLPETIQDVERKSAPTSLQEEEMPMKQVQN

[18] = Inhibition of P-glycoprotein
[19] = molecular target: Bile salt export pump (Homo sapiens, UniProt O95342); assay: Inhibition of BSEP
Chain of Bile salt export pump (O95342 whole entry): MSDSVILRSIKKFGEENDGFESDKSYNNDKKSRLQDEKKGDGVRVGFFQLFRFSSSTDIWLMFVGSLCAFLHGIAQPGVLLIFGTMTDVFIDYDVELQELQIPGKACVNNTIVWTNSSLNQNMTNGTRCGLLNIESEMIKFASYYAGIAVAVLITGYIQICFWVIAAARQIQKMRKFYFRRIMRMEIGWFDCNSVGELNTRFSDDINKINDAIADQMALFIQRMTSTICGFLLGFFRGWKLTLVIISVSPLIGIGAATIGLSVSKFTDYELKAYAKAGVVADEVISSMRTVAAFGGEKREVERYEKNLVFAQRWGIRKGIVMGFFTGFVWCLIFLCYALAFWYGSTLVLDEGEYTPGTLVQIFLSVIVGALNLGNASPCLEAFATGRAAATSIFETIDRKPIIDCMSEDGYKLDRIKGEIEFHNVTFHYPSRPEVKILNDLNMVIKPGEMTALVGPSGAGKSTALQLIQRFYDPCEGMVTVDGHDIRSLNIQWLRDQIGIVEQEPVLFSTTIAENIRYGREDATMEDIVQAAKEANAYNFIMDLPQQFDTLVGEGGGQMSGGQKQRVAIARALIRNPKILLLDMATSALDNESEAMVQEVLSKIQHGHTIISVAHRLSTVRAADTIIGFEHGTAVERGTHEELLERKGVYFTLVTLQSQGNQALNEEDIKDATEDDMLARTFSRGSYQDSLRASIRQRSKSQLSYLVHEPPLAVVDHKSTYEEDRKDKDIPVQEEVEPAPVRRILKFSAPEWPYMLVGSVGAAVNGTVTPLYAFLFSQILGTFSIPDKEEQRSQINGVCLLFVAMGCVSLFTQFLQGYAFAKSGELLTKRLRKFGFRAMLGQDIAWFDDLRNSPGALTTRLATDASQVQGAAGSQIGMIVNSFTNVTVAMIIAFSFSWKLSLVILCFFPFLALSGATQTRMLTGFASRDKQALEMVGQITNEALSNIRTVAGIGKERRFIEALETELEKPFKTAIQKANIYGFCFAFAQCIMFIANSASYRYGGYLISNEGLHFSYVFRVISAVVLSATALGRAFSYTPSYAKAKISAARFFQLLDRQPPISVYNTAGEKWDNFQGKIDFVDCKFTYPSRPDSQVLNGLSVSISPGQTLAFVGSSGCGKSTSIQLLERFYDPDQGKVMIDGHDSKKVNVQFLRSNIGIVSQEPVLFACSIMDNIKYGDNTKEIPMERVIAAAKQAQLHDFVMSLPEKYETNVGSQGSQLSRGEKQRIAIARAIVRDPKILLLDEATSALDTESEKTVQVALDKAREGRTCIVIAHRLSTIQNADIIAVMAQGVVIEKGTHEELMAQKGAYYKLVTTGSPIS

[20] = tested on: Hepatitis C virus; assay: Antiviral activity against HCV genotype 1 infected in human at 300 mg, po; format: functional, Hepacivirus hominis
[21] = Selectivity ratio of IC50 for cathepsin D to IC50 for HCV1b NS3/4A protease
[22] = Selectivity ratio of IC50 for cathepsin L to IC50 for HCV1b NS3/4A protease

Row | SMILES | Papp B→A [1] [×10⁻⁶ cm/s] | EC50 [2] [nM] | Papp A→B [3] [×10⁻⁶ cm/s] | IC50 [4] [nM] | further results
1 | C=C[C@@H]1C[C@]1(NC(=O)[C@@H]1C[C@@H](Oc2cc(-c3csc(NC(C)C)n3)nc3cc(OC)ccc23)CN1C(=O)[C@@H](NC(=O)OC1CCCC1)C(C)(C)C)P(=O)(O)Cc1c(F)cccc1Cl | 5.87 | 120 | 0.89 | 6 | 
2 | COc1ccc2c(O[C@@H]3C[C@H]4C(=O)N[C@]5(P(=O)(O)Cc6c(F)cccc6F)C[C@H]5CCCCCCC[C@H](NC(=O)OC5CCCC5)C(=O)N4C3)cc(-c3csc(NC(C)C)n3)nc2c1 |  | 10 |  | 4 | bioavailability [5]: 2.9%
3 | C=C[C@@H]1C[C@]1(NC(=O)[C@@H]1C[C@@H](Oc2cc(-c3csc(NC(C)C)n3)nc3cc(OC)ccc23)CN1C(=O)[C@@H](NC(=O)OC1CCCC1)C(C)(C)C)P(=O)(O)Cc1c(C)cccc1C | 2.93 | 7700 | 0.19 | 63 | 
4 | COc1ccc2c(O[C@@H]3C[C@H]4C(=O)N[C@]5(C(=O)O)C[C@H]5/C=C\CCCCC[C@H](NC(=O)OC5CCCC5)C(=O)N4C3)cc(-c3csc(NC(C)C)n3)nc2c1 [CILUPREVIR] |  | 1 |  | 1 | 
5 | C=C[C@@H]1C[C@]1(NC(=O)[C@@H]1C[C@@H](Oc2cc(-c3csc(NC(C)C)n3)nc3cc(OC)ccc23)CN1C(=O)[C@@H](NC(=O)OC1CCCC1)C(C)(C)C)P(=O)(O)Cc1ccc(OC)cc1 | 5.83 | 460 | 0.71 | 10 | 
6 | C=C[C@@H]1C[C@]1(NC(=O)[C@@H]1C[C@@H](Oc2cc(-c3csc(NC(C)C)n3)nc3cc(OC)ccc23)CN1C(=O)[C@@H](NC(=O)OC1CCCC1)C(C)(C)C)P(=O)(O)Cc1cccc(C)c1 | 3.5 | 331 | 0.64 | 8 | 
7 | C=C[C@@H]1C[C@]1(NC(=O)[C@@H]1C[C@@H](Oc2cc(-c3csc(NC(C)C)n3)nc3cc(OC)ccc23)CN1C(=O)[C@@H](NC(=O)OC1CCCC1)C(C)(C)C)P(=O)(O)Cc1cccc(F)c1 | 1.8 | 239 | 0.34 | 8 | 
8 | C=C[C@@H]1C[C@]1(NC(=O)[C@@H]1C[C@@H](Oc2cc(-c3csc(NC(C)C)n3)nc3cc(OC)ccc23)CN1C(=O)[C@@H](NC(=O)OC1CCCC1)C(C)(C)C)P(=O)(O)Cc1ccc(F)cc1 | 4.38 | 284 | 0.84 | 7 | 
9 | C=C[C@@H]1C[C@]1(NC(=O)[C@@H]1C[C@@H](Oc2cc(-c3csc(NC(C)C)n3)nc3cc(OC)ccc23)CN1C(=O)[C@@H](NC(=O)OC1CCCC1)C(C)(C)C)P(=O)(O)Cc1c(F)cccc1C(F)(F)F | 6.36 | 340 | 0.53 | 6 | 
10 | C=C[C@@H]1C[C@]1(NC(=O)[C@@H]1C[C@@H](Oc2cc(-c3csc(NC(C)C)n3)nc3cc(OC)ccc23)CN1C(=O)[C@@H](NC(=O)OC1CCCC1)C(C)(C)C)P(=O)(O)Cc1ccccc1C | 3.9 | 146 | 0.69 | 8 | 
11 | C=C[C@@H]1C[C@]1(NC(=O)[C@@H]1C[C@@H](Oc2cc(-c3csc(NC(C)C)n3)nc3cc(OC)ccc23)CN1C(=O)[C@@H](NC(=O)OC1CCCC1)C(C)(C)C)P(=O)(O)Cc1ccccc1 | 6.1 | 170 | 0.7 | 7 | 
12 | COc1ccc2c(O[C@@H]3C[C@H]4C(=O)N[C@]5(P(=O)(O)Cc6c(F)cccc6F)C[C@H]5CCCCCCC[C@H](NC(=O)OC5CCCC5)C(=O)N4C3)cc(-c3csc(NC(C)C)n3)nc2c1Br |  | 7 |  | 3 | bioavailability [5]: 4.1%
13 | C=C[C@@H]1C[C@]1(NC(=O)[C@@H]1C[C@@H](Oc2cc(-c3csc(NC(C)C)n3)nc3cc(OC)ccc23)CN1C(=O)[C@@H](NC(=O)OC1CCCC1)C(C)(C)C)P(=O)(O)Cc1cccc(OC)c1 | 8.28 | 540 | 0.39 | 7 | 
14 | C=C[C@@H]1C[C@]1(NC(=O)[C@@H]1C[C@@H](Oc2cc(-c3csc(NC(C)C)n3)nc3cc(OC)ccc23)CN1C(=O)[C@@H](NC(=O)OC1CCCC1)C(C)(C)C)P(=O)(O)Cc1ccccc1F | 2.74 | 170 | 0.53 | 4 | 
15 | COc1ccc2c(O[C@@H]3C[C@H]4C(=O)N[C@]5(P(=O)(O)Cc6ccccc6)C[C@H]5CCCCCCC[C@H](NC(=O)OC5CCCC5)C(=O)N4C3)cc(-c3csc(NC(C)C)n3)nc2c1 |  | 5 |  | 6 | clearance [6]: 6 mL/min/kg
16 | COc1ccc2c(O[C@@H]3C[C@H]4C(=O)N[C@]5(P(=O)(O)Cc6c(F)cccc6F)C[C@H]5CCCCCCC[C@H](NC(=O)OC5CCCC5)C(=O)N4C3)cc(-c3csc(NC(C)C)n3)nc2c1Cl [GS-9256] |  | 20 |  | 4 | dose excreted at 4 h [7]: 95%; Ratio IC50 [8]: 28600; inhibition (INH) [9]: Not Active; Ratio IC50 [10]: 6600; inhibition (INH) [11]: Not Active; Ki [4]: 0.089 nM; Activity [12]: -1.8 log10IU/ml; Activity [13]: Active; Ratio IC50 [14]: 987; bioavailability [5]: 21%; half-life [15]: 7 h; Activity [16]: -2.8 log10IU/ml; Activity [17]: Active; inhibition [18]: Active; inhibition (INH) [19]: Active; Activity [20]: -2.4 log10IU/ml; Ratio IC50 [21]: 5300; Ratio IC50 [22]: 5400
17 | C=C[C@@H]1C[C@]1(NC(=O)[C@@H]1C[C@@H](Oc2cc(-c3csc(NC(C)C)n3)nc3cc(OC)ccc23)CN1C(=O)[C@@H](NC(=O)OC1CCCC1)C(C)(C)C)P(=O)(O)Cc1ccccc1OC | 6.2 | 48 | 0.43 | 6 | 
18 | C=C[C@@H]1C[C@]1(NC(=O)[C@@H]1C[C@@H](Oc2cc(-c3csc(NC(C)C)n3)nc3cc(OC)ccc23)CN1C(=O)[C@@H](NC(=O)OC1CCCC1)C(C)(C)C)P(=O)(O)Cc1ccc(C)cc1 | 12 | 860 | 0.69 | 15 | 
19 | COc1ccc2c(O[C@@H]3C[C@H]4C(=O)N[C@]5(P(=O)(O)Cc6c(F)cccc6F)C[C@H]5CCCCCCC[C@H](NC(=O)OC5CCCC5)C(=O)N4C3)cc(-c3csc(NC(C)C)n3)nc2c1F |  | 43 |  | 11 | bioavailability [5]: 6%
